Assay results taken from patent US11208475B1, “Methods and compositions for treating inflammatory or autoimmune diseases or conditions using serotonin receptor activators” (Flagship Pioneering Innovations V, Inc., priority 2018, dated 2021).

Test system: macrophages
Assay: IL-8 secretion by macrophages incubated with serotonin receptor agonists (bead-based immunoassay)
Format: cell-based
Conditions: human CD14+ monocyte-derived macrophages (M-CSF), supernatant
Experimental: CD14+ monocytes were isolated from human PBMCs using negative magnetic bead selection (Stemcell Technologies) on day 0. Cells were cultured with M-CSF to differentiate monocytes to macrophages. On day 6, cells were treated with LP44 (high affinity 5-HT7 agonist), BW 723C86 hydrochloride (5-HT2B agonist), MK 212 hydrochloride (5-HT2C agonist) (Sigma-Aldrich), at concentrations 1 μM and 10 μM overnight. Supernatant was collected and bead-based immunoassays (Biolegend) were performed to detect changes in cytokine secretion.
Across multiple human donors, secretion of the inflammatory cytokine, IL8, by macrophages was decreased after addition of each of the HTR2B, HTR2C, and HTR7 agonists, as show in Table 17 below.

With `CC(N)Cc1c[nH]c2ccc(OCc3cccs3)cc12.Cl` (stereo not drawn) [BW723086] the “Fold change of IL-8 (Normalized to Macs + LPS with no compound treatment)” value (compound 1 μM overnight) was 0.693 and the “Fold change of IL-8 (Normalized to Macs + LPS with no compound treatment)” value (compound 10 μM overnight) was 0.527.

With `CSc1ccccc1N1CCN(CCCCCC(=O)NC2CCCc3ccccc32)CC1` (stereo not drawn) [LP44] the “Fold change of IL-8 (Normalized to Macs + LPS with no compound treatment)” value (compound 1 μM overnight) was 0.340 and the “Fold change of IL-8 (Normalized to Macs + LPS with no compound treatment)” value (compound 10 μM overnight) was 0.427.

For `Clc1cncc(N2CCNCC2)n1` [MK212], the “Fold change of IL-8 (Normalized to Macs + LPS with no compound treatment)” value (compound 1 μM overnight) was 0.502 and the “Fold change of IL-8 (Normalized to Macs + LPS with no compound treatment)” value (compound 10 μM overnight) was 0.484.
